Data published in patent US20070219212A1, “Pyranouidole Derivatives and the Use Thereof for the Treatment of Hepatitis C Virus Infection or Disease” (priority 2004, published 2007).
Like-named read-outs stand apart in the source and are kept apart here.

How the values were obtained:
[1] = target: T1, NS5B from the BK strain (genotype 1b) (Hepatitis C virus genotype 1b, UniProt P26663); test: Hepatitis C polymerase (NS5B, BK strain) inhibition, radioactive filter assay; assay type: biochemical; settings: NS5B BK strain (genotype 1b)
T1 construct: NS5B from the BK strain (genotype 1b) is expressed in E coli as a protein in which the 21 C-terminal amino acids are replaced; made in house; host or cells: E. coli
Outline: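 E. coli-expressed C-terminally truncated His-tagged NS5B preincubated 15 min with compound at room temperature, then run 2 h at 22-25 °C on a hairpin-primed heteropolymeric RNA template (~3 nM) with radioactive nucleotides. EDTA stop; ~760 nt 33P product captured on filters, washed with phosphate buffer pH 7.0, scintillation counted.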

[2] = target: BB7 RNA-dependent RNA polymerase hepatitis C virus protein (Con1 HCV sequence) (Hepatitis C virus genotype 1b, UniProt Q9WMX2); test: Hepatitis C polymerase (BB7) inhibition; assay type: biochemical
Outline: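 Con1 (BB7) replicon-derived NS5B polymerase preincubated with compound (15% DMSO) 15 min at room temperature, then RNA template (~3 nM pOF) and nucleotides added. Reaction run 2 h at 22-25° C., stopped with EDTA (85 mM final). ^33P-labelled product captured on filters, washed with 0.5 M sodium phosphate pH 7.0, scintillation counted.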

[3] = BB7 (Con1) NS5B, read-out: BB7 IC50

BB7 RNA-dependent RNA polymerase hepatitis C virus protein (Con1 HCV sequence), sequence (Q9WMX2 2420-3010): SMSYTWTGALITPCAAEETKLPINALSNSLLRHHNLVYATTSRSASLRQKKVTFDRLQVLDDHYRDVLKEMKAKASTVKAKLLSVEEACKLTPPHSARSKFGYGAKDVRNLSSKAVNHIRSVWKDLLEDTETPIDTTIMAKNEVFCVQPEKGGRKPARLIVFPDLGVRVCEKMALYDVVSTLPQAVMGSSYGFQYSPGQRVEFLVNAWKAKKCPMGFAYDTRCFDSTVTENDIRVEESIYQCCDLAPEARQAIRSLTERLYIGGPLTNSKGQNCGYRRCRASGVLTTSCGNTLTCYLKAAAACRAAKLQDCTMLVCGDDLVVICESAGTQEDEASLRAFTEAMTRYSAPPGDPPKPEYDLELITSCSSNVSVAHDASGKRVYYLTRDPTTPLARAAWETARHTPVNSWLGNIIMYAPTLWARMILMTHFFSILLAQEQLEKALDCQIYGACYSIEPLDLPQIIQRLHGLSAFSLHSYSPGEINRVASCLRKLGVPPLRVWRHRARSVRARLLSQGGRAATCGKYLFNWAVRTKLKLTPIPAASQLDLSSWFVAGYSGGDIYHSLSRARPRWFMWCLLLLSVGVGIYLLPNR
T1 sequence (P26663 2420-2989): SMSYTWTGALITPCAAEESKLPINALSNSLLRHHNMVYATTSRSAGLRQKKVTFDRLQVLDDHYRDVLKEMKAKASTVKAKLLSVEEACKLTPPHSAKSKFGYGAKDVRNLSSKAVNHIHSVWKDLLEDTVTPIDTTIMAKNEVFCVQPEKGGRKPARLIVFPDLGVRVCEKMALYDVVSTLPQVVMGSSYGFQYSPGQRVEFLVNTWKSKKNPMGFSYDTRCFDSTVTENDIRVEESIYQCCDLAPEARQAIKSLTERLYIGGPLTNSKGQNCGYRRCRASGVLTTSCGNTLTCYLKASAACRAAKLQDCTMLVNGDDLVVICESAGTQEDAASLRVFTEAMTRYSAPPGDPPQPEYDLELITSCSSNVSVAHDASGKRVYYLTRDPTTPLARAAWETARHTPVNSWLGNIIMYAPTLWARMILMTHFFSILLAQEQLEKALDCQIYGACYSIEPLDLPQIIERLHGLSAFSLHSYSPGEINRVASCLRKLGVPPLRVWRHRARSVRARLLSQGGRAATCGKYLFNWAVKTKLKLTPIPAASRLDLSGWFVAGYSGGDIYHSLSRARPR

| Compound | IC50 [1] | IC50 [2] | IC50 ([2]; read-out: BB7 IC50, BB7 (Con1) NS5B) | IC50 [2, 3] |
| --- | --- | --- | --- | --- |
| CCCC1(CC(=O)O)OCCc2c1[nH]c1c(C)c(OCc3ccnc(NS(C)(=O)=O)c3)cc(C#N)c21 (stereo not drawn) [Example 96] | < 500 nM | < 500 nM |  |  |
| CCCC1(CC(=O)O)OCCc2c1[nH]c1c(C)c(OC[C@@H]3CCC(=O)N3)cc(C#N)c21 (stereo partly drawn) [Example 97] | < 500 nM | < 500 nM |  |  |
| CCCC1(CC(=O)O)OCCc2c1[nH]c1c(C)c(OCC(C)=O)cc(C#N)c21 (stereo not drawn) [Example 98] | 500 to 5000 nM | < 500 nM |  |  |
| CCCC1(CC(=O)O)OCCc2c1[nH]c1c(C)c(OCC(C)=NOC)cc(C#N)c21 (stereo not drawn) [Example 100] | < 500 nM | < 500 nM |  |  |
| CCCC1(CC(=O)O)OCCc2c1[nH]c1c(C)c(OC[C@H]3CCC(=O)N3)cc(C#N)c21 (stereo partly drawn) [Example 101] | < 500 nM | < 500 nM |  |  |
| CCCC1(CC(=O)O)OCCc2c1[nH]c1c(C)c(OCC(C)O)cc(C#N)c21 (stereo not drawn) [Example 102] | < 500 nM | < 500 nM |  |  |
| CCCC1(CC(=O)O)OCCc2c1[nH]c1c(C)c(OCC(=O)NC)cc(C#N)c21 (stereo not drawn) [Example 103] | < 500 nM | < 500 nM |  |  |
| CCCC1(CC(=O)O)OCCc2c1[nH]c1c(C)c(OCC(C)=NOCC)cc(C#N)c21 (stereo not drawn) [Example 104] | < 500 nM | < 500 nM |  |  |
| CCCC1(CC(=O)O)OCCc2c1[nH]c1c(C)c(OCC(C)=NOCC)cc(C#N)c21 (stereo not drawn) [Example 105] | < 500 nM |  | < 500 nM |  |
| CCCC1(CC(=O)O)OCCc2c1[nH]c1c(C)c(OCC3CCSCC3)cc(C#N)c21 (stereo not drawn) [Example 106] | < 500 nM | < 500 nM |  |  |
| CCCC1(CC(=O)O)OCCc2c1[nH]c1c(C)c(OCC3CCS(=O)(=O)CC3)cc(C#N)c21 (stereo not drawn) [Example 107] | < 500 nM | < 500 nM |  |  |
| CCCC1(CC(=O)O)OCCc2c1[nH]c1c(C)c(OCC3CCOCC3)cc(C#N)c21 (stereo not drawn) [Example 108] | < 500 nM |  |  | < 500 nM |
| CCCC1(CC(=O)O)OCCc2c1[nH]c1c(C)c(OCc3cc(C)nc(C)c3)cc(C#N)c21 (stereo not drawn) [Example 109] | < 500 nM |  |  | < 500 nM |
| CCCC1(CC(=O)O)OCCc2c1[nH]c1c(C)c(OCc3nccn3C)cc(C#N)c21 (stereo not drawn) [Example 110] | < 500 nM | < 500 nM |  |  |
| CCCC1(CC(=O)O)OCCc2c1[nH]c1c(C)c(OCCOCC)cc(C#N)c21 (stereo not drawn) [Example 111] | < 500 nM | < 500 nM |  |  |
| CCCC1(CC(=O)O)OCCc2c1[nH]c1c(C)c(OCCOC(C)C)cc(C#N)c21 (stereo not drawn) [Example 112] | < 500 nM | < 500 nM |  |  |
| CCCC1(CC(=O)O)OCCc2c1[nH]c1c(C)c(OCOC)cc(C#N)c21 (stereo not drawn) [Example 113] | < 500 nM | < 500 nM |  |  |
| CCCC1(CC(=O)O)OCCc2c1[nH]c1c(C)c(OCCN(C)Cc3ccccc3)cc(C#N)c21 (stereo not drawn) [Example 114] | < 500 nM | < 500 nM |  |  |
| CCCC1(CC(=O)O)OCCc2c1[nH]c1c(C)c(OCCOCCOC)cc(C#N)c21 (stereo not drawn) [Example 115] | < 500 nM |  |  | < 500 nM |
| CCCC1(CC(=O)O)OCCc2c1[nH]c1c(C)c(OCc3nnnn3C)cc(C#N)c21 (stereo not drawn) [Example 116] | < 500 nM | < 500 nM |  |  |
| CCCC1(CC(=O)O)OCCc2c1[nH]c1c(C)c(OCCOCc3ccccc3)cc(C#N)c21 (stereo not drawn) [Example 117] | < 500 nM | < 500 nM |  |  |
| CCC[C@]1(CC(=O)O)OCCc2c1[nH]c1c(C)c(OCCOCC)cc(C#N)c21 [Example 118] | < 500 nM | < 500 nM |  |  |
| CCCC1(CC(=O)O)OCCc2c1[nH]c1c(C)c(OCCCOC)cc(C#N)c21 (stereo not drawn) [Example 119] | < 500 nM | < 500 nM |  |  |
| CCCC1(CC(=O)O)OCCc2c1[nH]c1c(C)c(OCCOCC3CC3)cc(C#N)c21 (stereo not drawn) [Example 120] | < 500 nM |  |  | < 500 nM |

| Compound | IC50 [1] | IC50 [2] | IC50 ([2]; read-out: BB7 IC50, BB7 (Con1) NS5B) | IC50 [2, 3] |
| --- | --- | --- | --- | --- |
| CCCC1(CC(=O)O)OCCc2c1[nH]c1c(C)c(OCC(C)OC)cc(C#N)c21 (stereo not drawn) [Example 121] | < 500 nM | < 500 nM |  |  |
| CCCC1(CC(=O)O)OCCc2c1[nH]c1c(C)c(OCC3CCN(S(C)(=O)=O)CC3)cc(C#N)c21 (stereo not drawn) [Example 122] | < 500 nM | < 500 nM |  |  |
| CCCC1(CC(=O)O)OCCc2c1[nH]c1c(C)c(OCC3CN(S(C)(=O)=O)C3)cc(C#N)c21 (stereo not drawn) [Example 123] | < 500 nM | < 500 nM |  |  |
| CCCC1(CC(=O)O)OCCc2c1[nH]c1c(C)c(OCc3ccon3)cc(C#N)c21 (stereo not drawn) [Example 124] | < 500 nM | < 500 nM |  |  |
| CCC[C@]1(CC(=O)O)OCCc2c1[nH]c1c(C)c(OCc3conc3C)cc(C#N)c21 [Example 125] | < 500 nM | < 500 nM |  |  |
| CCCC1(CC(=O)O)OCCc2c1[nH]c1c(C)c(OCc3cc(C(F)(F)F)n(C)n3)cc(C#N)c21 (stereo not drawn) [Example 126] | < 500 nM | < 500 nM |  |  |
| CCCC1(CC(=O)O)OCCc2c1[nH]c1c(C)c(OCc3cc(C4CC4)on3)cc(C#N)c21 (stereo not drawn) [Example 127] | < 500 nM |  |  | < 500 nM |
| CCCC1(CC(=O)O)OCCc2c1[nH]c1c(C)c(OCc3cc(C)[nH]n3)cc(C#N)c21 (stereo not drawn) [Example 128] | < 500 nM | < 500 nM |  |  |
| CCCC1(CC(=O)O)OCCc2c1[nH]c1c(C)c(OCc3cc(C(F)(F)F)n[nH]3)cc(C#N)c21 (stereo not drawn) [Example 129] | < 500 nM |  |  | < 500 nM |
| CCCC1(CC(=O)O)OCCc2c1[nH]c1c(C)c(OCc3cc(C4CC4)n(C)n3)cc(C#N)c21 (stereo not drawn) [Example 130] | < 500 nM | < 500 nM |  |  |
| CCCC1(CC(=O)O)OCCc2c1[nH]c1c(C)c(OCc3nsc(N(CC)CC)n3)cc(C#N)c21 (stereo not drawn) [Example 132] | < 500 nM | < 500 nM |  |  |
| CCCC1(CC(=O)O)OCCc2c1[nH]c1c(C)c(OCc3nnc(C)s3)cc(C#N)c21 (stereo not drawn) [Example 133] | < 500 nM | < 500 nM |  |  |
| CCCC1(CC(=O)O)OCCc2c1[nH]c1c(C)c(OCc3nsc(OCC)n3)cc(C#N)c21 (stereo not drawn) [Example 134] | < 500 nM |  |  | < 500 nM |
| CCCC1(CC(=O)O)OCCc2c1[nH]c1c(C)c(OCCCc3cc(C)on3)cc(C#N)c21 (stereo not drawn) [Example 135] | < 500 nM | < 500 nM |  |  |
| CCCC1(CC(=O)O)OCCc2c1[nH]c1c(C)c(OCc3nsc(N(C)C)n3)cc(C#N)c21 (stereo not drawn) [Example 136] | < 500 nM |  |  | < 500 nM |
| CCCC1(CC(=O)O)OCCc2c1[nH]c1c(C)c(OCc3ccn(CC)n3)cc(C#N)c21 (stereo not drawn) [Example 137] | < 500 nM | < 500 nM |  |  |
| CCCC1(CC(=O)O)OCCc2c1[nH]c1c(C)c(OCc3cc(CC)n(CC)n3)cc(C#N)c21 (stereo not drawn) [Example 138] | < 500 nM |  |  | < 500 nM |
| CCCC1(CC(=O)O)OCCc2c1[nH]c1c(C)c(OCc3cc(CC)n(C)n3)cc(C#N)c21 (stereo not drawn) [Example 139] | < 500 nM | < 500 nM |  |  |
| CCCC1(CC(=O)O)OCCc2c1[nH]c1c(C)c(OCc3cc(C)n(CC)n3)cc(C#N)c21 (stereo not drawn) [Example 140] | < 500 nM | < 500 nM |  |  |
| CCCC1(CC(=O)O)OCCc2c1[nH]c1c(C)c(OC[C@@H](C)OC)cc(C#N)c21 (stereo partly drawn) [Example 141] | < 500 nM | < 500 nM |  |  |
| CCCC1(CC(=O)O)OCCc2c1[nH]c1c(C)c(OCCCSC)cc(C#N)c21 (stereo not drawn) [Example 142] | < 500 nM | < 500 nM |  |  |
| CCCC1(CC(=O)O)OCCc2c1[nH]c1c(C)c(OCCCS(C)(=O)=O)cc(C#N)c21 (stereo not drawn) [Example 143] | < 500 nM |  |  | < 500 nM |
| (7-Benzyloxymethyl-5-cyano-8-methyl-1-propyl-1,3,4,9-tetrahydro-pyrano[3,4-b]indol-1-yl)-acetic acid [Example 15] | < 500 nM |  |  | < 500 nM |
| [5-Cyano-8-methyl-1-propyl-7-(tetrahydro-pyran-4-ylmethoxymethyl)-1,3,4,9-tetrahydro-pyrano[3,4-b]indol-1-yl]-acetic acid [Example 12] | 500 to 5000 nM |  |  | 500 to 5000 nM |
